Experimental data reported in patent publication US20070037752A1, “Novel alanyl-amino peptidase inhibitors for functionally influencing different cells and treating immunological, inflammatory, neuronal, and other diseases” (priority 2003, published 2007).

What follows are compounds tested on female Balb/c mice (assay: Dextran sulfate-induced colitis, disease score). Conditions: 10 μg single inhibitor i.p., three days from day 5, score on day 7; insignificant.
Type: in vivo
From the text: Therapeutic Effect of the Combined Inhibition of the Alanyl Aminopeptidases and of Enzymes Having an Analogous Effect as Well as of Dipeptidyl Peptidase IV and of Enzymes Having an Analogous Effect on the Dextran Sulfate-Induced Colitis in Mice (Animal Model of Chronic Inflammatory Intestinal Diseases)
An inflammation relating predominantly to the colon (equivalent to the disease of human Colitis ulcerosa) was induced by an administration of 3% sodium dextran sulfate dissolved in the drinking water of female Balb/c mice having an age of 8 weeks. […] The peptidase inhibitors (or phosphate-buffered saline as a placebo) were administered intraperitoneally from day 5 on for three successive days. The degree of the disease was determined in accordance with an acknowledged evaluation system (score). The following parameters were considered when determining the score: Consistency of the excrements (solid=0 points (pts.); pasty=2 pts.; liquid/like diarrhea=4 pts.); detection of blood in the excrements (no blood=0 pts.; occult blood=2 pts.; evident=4 pts.); loss of weight (0-5%=0 pts.; 5 to 10%=1 pts.; 10-15%=2 pts.; 15-20%=3 pts.; >20%=4 pts.). Healthy animals have a score value of 0 pts.; the maximum value are 12 pts. From 10 pts. on, the disease is lethal. In the course of the disease, the score value increased due to the change of the excrement parameters. […]

Row | SMILES | reduction of the heaviness of the disease (colitis score) [%]
1 | CCCCC[C@H](CC(=O)NO)C(=O)N[C@H](C(=O)N1CCC[C@H]1CO)C(C)C [Actinonine] | −16.5
2 | N[C@@H](CCCCNC(=O)OCc1ccc([N+](=O)[O-])cc1)C(=O)N1CCCC1 [Lys[Z(NO2)]pyrrolidide] | −12.3

Each compound was assayed against alanyl aminopeptidases (APN) (Homo sapiens, UniProt P15144) (assay: Inhibition of alanyl aminopeptidase enzymatic activity, fluorogenic substrate (Ala)2-rhodamine 110). Conditions: Table 1, unstarred values; read-out: IC50APN.
Sequence of alanyl aminopeptidases (APN) (P15144 whole entry, species assumed): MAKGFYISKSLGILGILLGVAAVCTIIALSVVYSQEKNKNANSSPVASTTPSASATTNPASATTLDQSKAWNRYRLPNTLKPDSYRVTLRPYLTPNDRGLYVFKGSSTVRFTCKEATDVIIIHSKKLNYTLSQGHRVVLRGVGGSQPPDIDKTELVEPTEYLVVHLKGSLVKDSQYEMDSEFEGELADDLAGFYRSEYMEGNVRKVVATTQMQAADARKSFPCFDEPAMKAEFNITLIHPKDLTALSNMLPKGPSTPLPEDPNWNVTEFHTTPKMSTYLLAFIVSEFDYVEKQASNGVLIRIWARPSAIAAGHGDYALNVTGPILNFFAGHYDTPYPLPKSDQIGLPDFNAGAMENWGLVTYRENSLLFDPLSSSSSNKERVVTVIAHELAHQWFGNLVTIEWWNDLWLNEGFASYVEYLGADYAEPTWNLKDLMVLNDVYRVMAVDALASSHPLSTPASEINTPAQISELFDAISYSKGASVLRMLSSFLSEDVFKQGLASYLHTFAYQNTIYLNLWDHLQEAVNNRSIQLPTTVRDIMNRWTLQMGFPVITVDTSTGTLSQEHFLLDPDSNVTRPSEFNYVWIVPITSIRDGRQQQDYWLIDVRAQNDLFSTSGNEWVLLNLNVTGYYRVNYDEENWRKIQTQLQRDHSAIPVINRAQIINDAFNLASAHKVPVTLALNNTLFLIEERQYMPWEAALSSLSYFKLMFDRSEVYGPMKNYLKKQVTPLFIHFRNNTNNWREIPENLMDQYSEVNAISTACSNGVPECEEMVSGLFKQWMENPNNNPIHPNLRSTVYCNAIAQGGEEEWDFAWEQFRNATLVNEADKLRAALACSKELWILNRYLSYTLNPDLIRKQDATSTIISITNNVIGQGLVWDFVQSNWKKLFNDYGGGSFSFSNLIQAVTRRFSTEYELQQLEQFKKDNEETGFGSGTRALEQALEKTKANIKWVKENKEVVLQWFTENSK
Type: biochemical
Method: The inhibition characteristics measured are referred to as IC-50 values or ID50 values (the latter marked with “*”) for said enzyme. The enzymatic activity was determined by means of the fluorogenic substrate/product (Ala)2-rhodamine 110.

Row | SMILES | IC50 [µM]
3 | O=C(CS(=O)(=O)c1ccc(Cl)cc1)NO [A1.008] | 11.5
4 | O=C(CCOC(c1ccccc1)c1ccc(Br)cc1)NO (stereo not shown) [A1.003] | 6.3

Same assay, conditions: Table 3, starred values = ID50; read-out: ID50 APN (values marked with *)

Row | SMILES | IC50 [µM]
5 | Cc1ccc(OCC(=O)N/N=C\c2ccco2)c(C)c1 [A3.309] | 81.8
6 | O=C(CCNC(=O)c1ccccc1Br)N/N=C/c1ccco1 [A3.311] | 85.8
7 | CC(=O)Nc1cccc(C(=O)N/N=C/c2ccc(C)o2)c1 [A3.285] | 63.1
8 | C/C(=N\NC(=O)c1ccn(C)n1)c1ccco1 [A3.349] | 323
9 | CCCC1NC(=S)N(c2ccccc2)C1=O (stereo not shown) [A3.332] | 154
10 | O=c1cc(CSc2nnc(-c3ccco3)c(-c3ccco3)n2)c2ccccc2[nH]1 [A3.289] | 65.1
11 | Cc1cccc(C(=O)Nc2ccc(C(=O)N/N=C/c3ccc4c(c3)OCO4)cc2)c1 [A3.203] | 33.8

Same assay, conditions: Table 3, unstarred values; read-out: IC50APN

Row | SMILES | IC50 [µM]
12 | CC1CCN(C(=O)/C(=C\c2ccco2)NC(=O)c2ccc(Cl)cc2)CC1 [A3.022] | 6.2
13 | O=C(CCCOc1ccc(Cl)cc1Cl)N/N=C/c1ccco1 [A3.158] | 26.3
14 | Cc1ccc(C(=O)N/C(=C\c2ccco2)C(=O)N2CC3CC(C2)c2cccc(=O)n2C3)cc1 (stereo not shown) [A3.042] | 11
15 | O=C(/C=C/c1ccco1)c1ccccc1 [A3.166] | 27.3
16 | Cc1cc(C)c(C)c(C(=O)COC(=O)c2ccc(-n3c(C)ccc3C)cc2)c1C [A3.014] | 4.5
17 | Cc1ccc(/C=N/NC(=O)c2cccc(NC(=O)c3ccccc3C)c2)o1 [A3.093] | 18.9
18 | Cn1nc(-c2cccs2)nc2c(=O)n(C)c(=O)nc1-2 [A3.133] | 25
19 | CC(C)COc1ccc(C(=O)N/C(=C\c2ccco2)C(=O)N2CCOCC2)cc1 [A3.057] | 13.1
20 | NNC(=O)c1ccc(NS(=O)(=O)c2cccs2)cc1 [A3.047] | 11.8
21 | COc1ccc(N(C(C)C(=O)N/N=C/c2ccco2)S(C)(=O)=O)cc1 (stereo not shown) [A3.251] | 47
22 | CC(/C=N/NC(=O)C(O)c1ccccc1)=C\c1ccco1 (stereo not shown) [A3.219] | 36.3
23 | COc1ccc(CCCC(=O)N/N=C/c2ccco2)cc1 [A3.141] | 23.4
24 | O=C(N/C(=C\c1ccco1)C(=O)N1CCC(O)CC1)c1ccccc1 [A3.115] | 21.1
25 | O=C(/C=C/c1ccco1)Nc1cccc(C(=O)O)c1 [A3.240] | 44.2
26 | Cc1ccc(C(=O)N/C(=C\c2ccco2)C(=O)N2CCSCC2)cc1C [A3.297] | 68.9
27 | O=C(COc1cccc2ccccc12)N/N=C/c1ccco1 [A3.056] | 12.9
28 | O=C(CCC(=O)Nc1ccc(Br)cc1)N/N=C/c1ccco1 [A3.019] | 5.2
29 | O=C(N/N=C/c1ccco1)c1cc(-c2ccc(F)cc2)n[nH]1 [A3.066] | 14.4
30 | O=C(CNC(=O)C(c1ccccc1)c1ccccc1)N/N=C/c1ccco1 [A3.071] | 15.6
31 | CCc1ccc(OCC(=O)N/N=C\c2ccco2)c([N+](=O)[O-])c1 [A3.153] | 25.1

Same assay, conditions: Table 4, starred values = ID50; read-out: ID50 APN (values marked with *)

Row | SMILES | IC50 [µM]
32 | O=C(N/N=C/c1ccco1)c1cc(-c2ccccc2Cl)n[nH]1 [A4.163] | 75.8
33 | O=C(CNC(=O)c1ccccc1O)N/N=C/c1ccco1 [A4.173] | 98.8

Same assay, conditions: Table 4, unstarred values; read-out: IC50APN

Row | SMILES | IC50 [µM]
34 | O=C(N/N=C/C=C\c1ccco1)c1ccco1 [A4.036] | 16
35 | O=C(NN=C(/C=C/c1ccccc1)c1ccccc1)c1cc2ccccc2cc1O [A4.028] | 13.7
36 | CC(C)C/C=N/NC(=O)c1ccc([N+](=O)[O-])cc1Cl [A4.035] | 15.6
37 | COc1ccc(OC)c(-c2cc(C(=O)N/N=C/c3ccco3)[nH]n2)c1 [A4.127] | 43.2
38 | CCCOc1ccccc1-c1c[nH]c(C(=O)N/N=C/c2ccco2)c1 [A4.051] | 19.5
39 | Cc1occc1C(=O)N/N=C/C=C\c1ccco1 [A4.098] | 31
40 | O=C(N/N=C/c1ccco1)c1ccc(F)cc1 [A4.159] | 68.9
41 | O=C(N/N=C/c1ccco1)c1ccccc1[N+](=O)[O-] [A4.172] | 91.2
42 | Cc1ccc(/C=N/NC(=O)c2ccc(N3CCCC3=O)cc2)o1 [A4.129] | 44.2
43 | CC(C)c1cc(C(=O)N/N=C/c2ccco2)[nH]n1 [A4.040] | 16.6
44 | Cc1ccc(/C=N/NC2=NC(=O)CS2)o1 [A4.082] | 26.4
45 | O=C(N/N=C/c1cc(Br)cc(Br)c1OC(=O)c1ccccc1)/C(=C/c1ccc2c(c1)OCO2)NC(=O)c1ccccc1 [A4.052] | 19.8

Same assay, conditions: Table 6; read-out: IC50APN

Row | SMILES | IC50 [µM]
46 | COc1ccc(C(=O)Nc2ccc(S(=O)(=O)N3CCCCC3)cc2)cc1 [A6.001] | 8.4
47 | N/C(=N/OS(=O)(=O)c1ccc(C(F)(F)F)cc1)C1CSCCS1 (stereo not shown) [A6.006] | 13.4

Same assay, conditions: Table 7; read-out: IC50APN

Row | SMILES | IC50 [µM]
48 | O=C1C(Cc2c[nH]c3ccccc23)NC(=S)N1c1ccccc1 (stereo not shown) [A7.006] | 12.4

Same assay, conditions: Table 8, unstarred values; read-out: IC50APN

Row | SMILES | IC50 [µM]
49 | O=C1C(Cc2ccc3[nH]ccc3c2)NC(=S)N1c1ccccc1 (stereo not shown) [A8.016] | 14.9
50 | CN(/N=C/c1sc(=O)[nH]c1Cl)c1ccccc1 [A8.014] | 14.4
51 | Cc1cccc(C)c1Nc1c(-c2ccccc2NC(=O)Nc2ccc(OC(F)(F)F)cc2)nc2c(C(=O)NCC(C)C)cccn12 [A8.027] | 31.4
52 | COc1cc(C)[n+](OC(=O)N(C)C)c(C)c1 [A8.030] | 42.4

Same assay, conditions: Table 9, starred values = ID50; read-out: ID50 APN (values marked with *)

Row | SMILES | IC50 [µM]
53 | Cc1ccc(Cn2c(SCCC(=O)O)nc3c2c(=O)[nH]c(=O)n3C)cc1 [A9.100] | 53.2
54 | Cn1c(=O)c2c(ncn2CC(=O)N/N=C/C=C\c2ccco2)n(C)c1=O [A9.113] | 79.8

Same assay, conditions: Table 9, unstarred values; read-out: IC50APN

Row | SMILES | IC50 [µM]
55 | Cc1cccc(C)c1Nc1c(-c2ccccc2NC(=O)Nc2cccc(Cl)c2)nc2c(C(=O)NCC(C)C)cccn12 [A9.055] | 21.6
56 | CSCCC(Nc1ncnc2c1oc1ccccc12)C(=O)O (stereo not shown) [A9.097] | 48.4
57 | COC(=O)C1=C(C(=O)OC)C(c2cc(Br)ccc2O)c2sc(O)nc2S1 (stereo not shown) [A9.006] | 4.7
58 | CC1=C(C#N)C(O)=NC(=O)/C1=C/c1ccc(-c2ccc(Cl)cc2Cl)o1 [A9.085] | 32.4
59 | Cn1c(=O)[nH]c2nnc(-c3cccs3)nc2c1=O [A9.065] | 22.6

Same assay, conditions: Table 11; read-out: IC50APN

Row | SMILES | IC50 [µM]
60 | O=C(Cc1ccc(Br)c2ccccc12)N/N=C/c1ccc([N+](=O)[O-])c(O)c1 [A11.003] | 7
61 | CC(=O)N1CCOC1(C)c1ccc([N+](=O)[O-])cc1 (stereo not shown) [A11.024] | 32.8
62 | COC(=O)c1cc(C(=O)NC2CCSC2=O)cc([N+](=O)[O-])c1 (stereo not shown) [A11.036] | 238
63 | CCCCCCCSc1nnc2c(n1)CC(C(=O)c1ccccc1)=Nc1ccccc1-2 [A11.019] | 28.9
64 | O=C1c2cccc3c(Br)c([N+](=O)[O-])cc(c23)C(=O)N1c1cccc([N+](=O)[O-])c1 [A11.016] | 23.3

Same assay, conditions: Table 12; read-out: IC50APN

Row | SMILES | IC50 [µM]
65 | CSCCC(Nc1ncnc2c1oc1ccccc12)C(=O)O (stereo not shown) [A12.060] | 48.4
66 | CCCOC(=O)c1cc(-c2ccc(/C=C3\C(=O)N(CCCO)C(=O)C(C#N)=C3C)o2)ccc1Cl [A12.022] | 23.8
67 | N#CCCCCCCCCC(=O)NO [A12.069] | 80.6

Same assay, conditions: Table 13; read-out: IC50APN

Row | SMILES | IC50 [µM]
68 | COC(=O)c1ccc(-c2ccc(/C=C3\C(=O)N(CCCO)C(=O)C(C#N)=C3C)o2)cc1 [A13.003] | 5

Each compound was assayed on female Balb/c mice (assay: Ovalbumine-induced asthma bronchiale, pulmonal function (EF50) and eosinophilia). Conditions: i.p. 0.1 mg of each inhibitor, days 28-35; FIG. 3 A.
Type: in vivo
Method: Therapeutic effect of the combined inhibition of alanyl aminopeptidases and of enzymes having an analogous effect as well as of dipeptidyl peptidase IV and of enzymes having an analogous effect on the ovalbumine-induced asthma bronchiale ib mice (animal model of human asthma bronchiale).
Female Balb/c mice were sensitized for the antigen ovalbumine capable of inducing asthma bronchiale by an intreperitoneal administration of 10 μg ovalbumine on the days 0, 14 and 21. On day 27/28, the animals received a boostering dose of ovalbumine by inhalation [vD3]. After an intreperitoneal administration of the peptidase inhibitors on the days 28-35, there was effected an intranasal ovalbumine challenge on day 35, as well as a check of the allergic premature reaction via the pulmonal function. There were measured: the average expiratory flux (EF50), the tidal volume, the respiration rate and the minute volume as well as the number of eosinophilic granulocytes in the bronchoalveolar lavage.
8 to 10 animals were used per experimental group. By way of example, in FIG. 3 A, there is summarized the effect of the peptidase inhibitors on the reduction of the EF50 value. […] Group E represents animals which were not sensitized by OVA, but which were subjected—beyond that—all procedures to which the animal groups A to D were subjected.

Row | SMILES | effect on the reduction of the EF50 value (pulmonal function)
69 | CCCCC[C@H](CC(=O)NO)C(=O)N[C@H](C(=O)N1CCC[C@H]1CO)C(C)C [Actinonine] | showed a therapeutic effect
70 | N[C@@H](CCCCNC(=O)OCc1ccc([N+](=O)[O-])cc1)C(=O)N1CCCC1 [Lys[Z(NO2)]pyrrolidide] | showed a therapeutic effect
